Test results published in the supplement of paper PMC11208160.

Assay: recombinant barcode read abundance after kanamycin selection (control-corrected) (log10(CPM+1)); higher = more efficient recombination; sequences stand for … in AGTGCAGAGAAAATCGGCCAGTTTTCTCTGCCTGCAGTCCGCATGCCGT…AGATTTATGCAGCGGACTGCCTTTCTCCCAAAGTGATAAACCGGACAGTATCATGGACCGGTTTTCCCGGTAATCCGTATTTGCAAGGTTGGTTTCACT; site = the 11-nt target
Summary of the method: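 Recombination efficiency was calculated from barcode counts at recombinant junctions, normalized to counts per million, averaged and corrected by the control. Each value is given as log10(CPM+1). The constructs were Gibson-cloned oligos (promoter, target, barcode, J23119-driven first 104 bridge RNA bases) in a vector with the remaining 73 bp and a T7-inducible recombinase, co-electroporated into E. coli with a donor plasmid and plated in duplicate on chloramphenicol/ampicillin LB agar (control) or chloramphenicol/ampicillin/kanamycin with 0.1 mM IPTG.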
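Also: IS621 recombinase and bridge RNA in Escherichia coli cells.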

| Sequence | recombinant barcode read abundance (log10) |
| --- | --- |
| TAGGCCACTTGGGTTCTAACCTGTTGCAT (site TAGGCCACTAA) | 0.071 |
| TAGGCCACTTGGGTTCTAACCTGTTGCAT (site TAGGCCACTAC) | 0.0809 |
| TAGGCCACTTGGGTTCTAACCTGTTGCAT (site TAGGCCACTAG) | 0.294 |
| TAGGCCACTTGGGTTCTAACCTGTTGCAT (site TAGGCCACTAT) | 1.39 |
| TAGGCCACTTGGGTTCTAACCTGTTGCGT (site TAGGCCACTAA) | 0.522 |
| TAGGCCACTTGGGTTCTAACCTGTTGCGT (site TAGGCCACTAC) | 2.85 |
| TAGGCCACTTGGGTTCTAACCTGTTGCGT (site TAGGCCACTAG) | 0.0599 |
| TAGGCCACTTGGGTTCTAACCTGTTGCGT (site TAGGCCACTAT) | 1.7 |
| TAGGCGCCTTGGGTTCTAACCTGTTGCTT (site TAGGCGCCTAA) | 1.03 |
| TAGGCGCCTTGGGTTCTAACCTGTTGCTT (site TAGGCGCCTAC) | 0.263 |
| TAGGCGCCTTGGGTTCTAACCTGTTGCTT (site TAGGCGCCTAG) | 0.193 |
| TAGGCGCCTTGGGTTCTAACCTGTTGCTT (site TAGGCGCCTAT) | 0.0771 |
| TAGGCTCCTTGGGTTCTAACCTGTTGCAT (site TAGGCTCCTAT) | 1.19 |
| TAGGCTCCTTGGGTTCTAACCTGTTGCAT (site TAGGCTCCTCT) | 0.0701 |
| TAGGCTCCTTGGGTTCTAACCTGTTGCAT (site TAGGCTCCTGT) | 0.0892 |
| TAGGCTCCTTGGGTTCTAACCTGTTGCAT (site TAGGCTCCTTT) | 0.0761 |
| TAGGGCACTTGGGTTCTAACCTGTTGCTG (site TAGGGCACTCA) | 2.1 |
| TAGGGCACTTGGGTTCTAACCTGTTGCTG (site TAGGGCACTCG) | 0.888 |
| TAGGGCGCTTGGGTTCTAACCTGTTGCCT (site TAAGGAGCTAG) | 0.204 |
| TAGGGCGCTTGGGTTCTAACCTGTTGCCT (site TAGGGCGCTAG) | 1.01 |
| TAGGTGCCTTGGGTTCTAACCTGTTGCAT (site TAGGTACCTAT) | 1.21 |
| TAGGTGCCTTGGGTTCTAACCTGTTGCAT (site TAGGTCCCTAT) | 0.0424 |

| Sequence | recombinant barcode read abundance (log10) |
| --- | --- |
| TAGGTGCCTTGGGTTCTAACCTGTTGCAT (site TAGGTGCCTAT) | 1.79 |
| TAGGTGCCTTGGGTTCTAACCTGTTGCAT (site TAGGTTCCTAT) | 0.167 |
| TAGGTGCCTTGGGTTCTAACCTGTTGCGG (site TAGGTGACTCC) | 0.134 |
| TAGGTGCCTTGGGTTCTAACCTGTTGCGG (site TAGGTGCCTCC) | 2.99 |
| TAGTAAGCTTGGGTTCTAACCTGTTGCTG (site TAGTAAGCTCA) | 0.921 |
| TAGTAAGCTTGGGTTCTAACCTGTTGCTG (site TAGTACGCTCT) | 0.142 |
| TAGTACACTTGGGTTCTAACCTGTTGCAC (site ACCATGTCTCC) | 0.0598 |
| TAGTACACTTGGGTTCTAACCTGTTGCAC (site TAGTACACTGT) | 1.55 |
| TAGTACTCTTGGGTTCTAACCTGTTGCTA (site TAGTACTCTAA) | 0.0398 |
| TAGTACTCTTGGGTTCTAACCTGTTGCTA (site TAGTACTCTCA) | 0.0859 |
| TAGTACTCTTGGGTTCTAACCTGTTGCTA (site TAGTACTCTGA) | 0.164 |
| TAGTACTCTTGGGTTCTAACCTGTTGCTA (site TAGTACTCTTA) | 1.58 |
| TAGTACTCTTGGGTTCTAACCTGTTGCTT (site TAGTACTCTAA) | 1.14 |
| TAGTACTCTTGGGTTCTAACCTGTTGCTT (site TAGTACTCTCA) | 0.0325 |
| TAGTACTCTTGGGTTCTAACCTGTTGCTT (site TAGTACTCTGA) | 0.199 |
| TAGTACTCTTGGGTTCTAACCTGTTGCTT (site TAGTACTCTTA) | 0.0259 |
| TAGTATCCTTGGGTTCTAACCTGTTGCGT (site TAGTATCCTAC) | 1.87 |
| TAGTATCCTTGGGTTCTAACCTGTTGCGT (site TAGTCTCCTAC) | 0.0759 |
| TAGTATCCTTGGGTTCTAACCTGTTGCGT (site TAGTGTCCTAC) | 0.0306 |
| TAGTATCCTTGGGTTCTAACCTGTTGCGT (site TAGTTTCCTAC) | 0.21 |
| TAGTCCACTTGGGTTCTAACCTGTTGCTA (site AAGTCCACTAA) | 0.239 |
| TAGTCCACTTGGGTTCTAACCTGTTGCTA (site TAGTCCACTTA) | 1.15 |

| Sequence | recombinant barcode read abundance (log10) |
| --- | --- |
| TAGTCCGCTTGGGTTCTAACCTGTTGCCG (site TAGCCCTCTCG) | 0.214 |
| TAGTCCGCTTGGGTTCTAACCTGTTGCCG (site TAGTCCGCTCG) | 0.446 |
| TAGTCCTCTTGGGTTCTAACCTGTTGCTG (site TAGTCCTCTAA) | 0.048 |
| TAGTCCTCTTGGGTTCTAACCTGTTGCTG (site TAGTCCTCTCA) | 1.02 |
| TAGTCCTCTTGGGTTCTAACCTGTTGCTG (site TAGTCCTCTGA) | 0.14 |
| TAGTCCTCTTGGGTTCTAACCTGTTGCTG (site TAGTCCTCTTA) | 0.185 |
| TAGTCTTCTTGGGTTCTAACCTGTTGCGT (site AAGTATTCTAC) | 0.066 |
| TAGTCTTCTTGGGTTCTAACCTGTTGCGT (site TAGTCTTCTAC) | 0.681 |
| TAGTGGTCTTGGGTTCTAACCTGTTGCAT (site TAGTGGTCTAT) | 2.04 |
| TAGTGGTCTTGGGTTCTAACCTGTTGCAT (site TAGTGGTCTTA) | 0.215 |
| TAGTGTCCTTGGGTTCTAACCTGTTGCCA (site TAGTGTCCTTG) | 0.357 |
| TAGTGTCCTTGGGTTCTAACCTGTTGCCA (site TGGTGTGCTTG) | 0.142 |
| TAGTGTGCTTGGGTTCTAACCTGTTGCGT (site TAGTGTGCTAA) | 0.0341 |
| TAGTGTGCTTGGGTTCTAACCTGTTGCGT (site TAGTGTGCTAC) | 1.66 |
| TAGTGTTCTTGGGTTCTAACCTGTTGCAT (site TAGTGTCCTAT) | 0.109 |
| TAGTGTTCTTGGGTTCTAACCTGTTGCAT (site TAGTGTTCTAT) | 0.918 |
| TAGTTAGCTTGGGTTCTAACCTGTTGCCA (site TAGTTAGCTAG) | 0.0117 |
| TAGTTAGCTTGGGTTCTAACCTGTTGCCA (site TAGTTAGCTCG) | 0.17 |
| TAGTTAGCTTGGGTTCTAACCTGTTGCCA (site TAGTTAGCTGG) | 0.0516 |
| TAGTTAGCTTGGGTTCTAACCTGTTGCCA (site TAGTTAGCTTG) | 0.418 |
| TAGTTCACTTGGGTTCTAACCTGTTGCAT (site TAGATCACTAT) | 0.0793 |
| TAGTTCACTTGGGTTCTAACCTGTTGCAT (site TAGCTCACTAT) | 0.0603 |

| Sequence | recombinant barcode read abundance (log10) |
| --- | --- |
| TAGTTCACTTGGGTTCTAACCTGTTGCAT (site TAGGTCACTAT) | 0.159 |
| TAGTTCACTTGGGTTCTAACCTGTTGCAT (site TAGTTCACTAT) | 0.382 |
| TAGTTTACTTGGGTTCTAACCTGTTGCAG (site ACTCCAGCTAG) | 0.294 |
| TAGTTTACTTGGGTTCTAACCTGTTGCAG (site TAGTTTACTCT) | 0.272 |
| TAGTTTACTTGGGTTCTAACCTGTTGCCA (site TAGTTAACTTG) | 0.0268 |
| TAGTTTACTTGGGTTCTAACCTGTTGCCA (site TAGTTCACTTG) | 0.109 |
| TAGTTTACTTGGGTTCTAACCTGTTGCCA (site TAGTTGACTTG) | 0.0764 |
| TAGTTTACTTGGGTTCTAACCTGTTGCCA (site TAGTTTACTTG) | 0.334 |
| TATAAAACTTGGGTTCTAACCTGTTGCCT (site TATAAAACTAG) | 0.0338 |
| TATAAAACTTGGGTTCTAACCTGTTGCCT (site TATACAACTAG) | 0.0401 |
| TATAAAACTTGGGTTCTAACCTGTTGCCT (site TATAGAACTAG) | 0.0357 |
| TATAAAACTTGGGTTCTAACCTGTTGCCT (site TATATAACTAG) | 0.697 |
| TATAACACTTGGGTTCTAACCTGTTGCCG (site CTACTATCTGC) | 0.0288 |
| TATAACACTTGGGTTCTAACCTGTTGCCG (site TATAACACTCG) | 0.246 |
| TATAACTCTTGGGTTCTAACCTGTTGCCT (site AATAACTCTAG) | 0.0281 |
| TATAACTCTTGGGTTCTAACCTGTTGCCT (site CATAACTCTAG) | 0.198 |
| TATAACTCTTGGGTTCTAACCTGTTGCCT (site GATAACTCTAG) | 0.0978 |
| TATAACTCTTGGGTTCTAACCTGTTGCCT (site TATAACTCTAG) | 0.549 |
| TATACTGCTTGGGTTCTAACCTGTTGCCT (site TATACTACTAG) | 0.0148 |
| TATACTGCTTGGGTTCTAACCTGTTGCCT (site TATACTGCTAG) | 0.0304 |
